Measured values reported in patent EP0701444B1, “METHODS AND COMPOSITIONS FOR INDUCING SLEEP” (Purdue Pharma Ltd., priority 1993, dated 1994).
Values joined by “and” are separate entries in the source; they are usually repeats but may differ in a detail not shown here. Equal values may be shown once. Where a name gives a salt, the structure may show the parent alone.

Molecular target: steroid site on the GABAA receptor-chloride channel complex
Experiment: [35S]TBPS binding assay
Design: species or system Male Sprague-Dawley rats
Details: inhibition of [35S]TBPS (2 nM) binding, rat cerebral cortex P2 membranes, 5 µM GABA, 90 minute incubation at 22°C
Protocol: TBPS binding assays were conducted according to the following procedures, which are described in Gee, K.W.; Lawrence, L.J.; and Yamamura, H. I., "Modulation of the Chloride Ionophore by Benzodiazepine Receptor Ligands Influence of Gamma-Aminobutyric Acid and Ligand Efficacy," Molecular Pharmacology, 30:218, 1986. Male Sprague-Dawley rats (200-250g) were anesthetized with carbon dioxide and decapitated. The rats' brains were removed and the cerebral cortices were dissected and homogenized in 10 volumes of 0.32 M sucrose. Tissue was centrifuged at 1000 x g for 10 minutes and the resultant supernatant was centrifuged at 9,000 g for 20 minutes. The resultant pellet was resuspended in 10 volumes of 200 mM NaCl/50 mM Na-K phosphate pH 7.4 buffer (binding buffer) and then centrifuged at 9,000 x g for 10 minutes. This washing procedure was repeated twice and the final P2 pellet was resuspended in the binding buffer. For the binding assay, [^35S] TBPS (2 nM) was co-incubated in binding buffer with P2 membranes and 5 µM GABA and either 1) no additions to measure total binding; 2) 2 µM unlabeled TPBS to measure nonspecific binding; 3) the neurosteroid ranging in concentration from 1 Nm to 10µM. Following a 90 minute incubation at 22°C, the suspension was filtered and the bound radioactivity was determined by liquid scintillation counting. […] A lower IC50 indicates higher affinity for the steroid site on the GABAA receptor-chloride channel complex. Table 1 gives the IC50 values of representative steroids used in the present invention.

Molecule	IC50
3α-Hydroxy-3β-trifluoromethyl-5β-19-nor-pregn-17(20)-ene	482 nM
20,20-ethylenedioxy-3α-hydroxy-5α-pregnan-20-one	176 nM
CC(=O)[C@H]1CC[C@H]2[C@@H]3CC[C@@H]4C[C@@](O)(C#CCC(C)OC(=O)CCC(=O)O)CC[C@]4(C)[C@H]3CC[C@]12C (mixture of isomers) [3α-Hydroxy-3β-[4'(R/S)-hydroxypentynyl]-5β-pregnan-20-one 4'(R/S)-hemisuccinate sodium salt]	153 nM
CC(C)(O)[C@H]1CC[C@H]2[C@@H]3CC[C@H]4C[C@H](O)CC[C@]4(C)[C@H]3CC[C@]12C [3α,20-dihydroxy-20-methyl-5α-pregnane]	151 nM
CCC[C@H](O)[C@H]1CC[C@H]2[C@@H]3CC[C@H]4C[C@H](O)CC[C@]4(C)[C@H]3CC[C@]12C [3α,20a-Dihydroxy-21-ethyl-5α-pregnane]	27 nM
CC[C@H](O)[C@H]1CC[C@H]2[C@@H]3CC[C@H]4C[C@H](O)CC[C@]4(C)[C@H]3CC[C@]12C [3α,20a-Dihydroxy-21-methyl-5α-pregnane]	35 nM
C[C@H](O)[C@H]1CC[C@H]2[C@@H]3CC[C@H]4C[C@](C)(O)CC[C@]4(C)[C@H]3CC[C@]12C [3α,20a-dihydroxy-30-methyl-5α-pregnane]	166 nM
C[C@@H](O)[C@H]1CC[C@H]2[C@@H]3CC[C@@H]4C[C@H](O)CC[C@]4(C)[C@H]3CC[C@]12C [3α,20b-dihydroxy-5β-pregnane]	206 nM
C#C[C@@]1(O)CC[C@@]2(C)[C@@H](CC[C@@H]3[C@@H]2CC[C@]2(C)[C@@H](C(=O)CO)CC[C@@H]32)C1 [3α,21-Dihydroxy-3β-ethynyl-5α-pregnan-20-one]	216 nM
CC(=O)OCC(=O)[C@H]1CC[C@H]2[C@@H]3CC[C@@H]4C[C@@](O)(C(F)(F)F)CC[C@]4(C)[C@H]3CC[C@]12C [3α,21-Dihydroxy-3β-trifluoromethyl-5β-pregnan-20-one, 21-acetate]	370 nM
C[C@@]1(O)CC[C@@]2(C)[C@@H](CC[C@@H]3[C@@H]2CC[C@]2(C)[C@@H](C(=O)COC(=O)CCC(=O)O)CC[C@@H]32)C1 [3α,21-dihydroxy-3β-methyl-5α-pregnan-20-one 21-Hemisuccinate]	241 nM
CC(=O)OCC(=O)[C@H]1CC[C@H]2[C@@H]3CC[C@H]4C[C@H](O)CC[C@]4(C)[C@H]3CC[C@]12C [3α,21-dihydroxy-5α-pregnan-20-one 21-acetate]	75 nM and 119 nM
C[C@]12CC[C@@H](O)C[C@@H]1CC[C@@H]1[C@@H]2CC[C@]2(C)[C@@H](C(=O)COC(=O)CCC(=O)O)CC[C@@H]12 [3α,21-dihydroxy-5α-pregnan-20-one 21-hemisuccinate]	117 nM
C[C@]12CC[C@@H](O)C[C@H]1CC[C@@H]1[C@@H]2CC[C@]2(C)[C@@H](C(=O)COC(=O)CCC(=O)O)CC[C@@H]12 [3α,21-dihydroxy-5β-pregnan-20-one 21-hemisuccinate]	224 nM
C[C@]12CC[C@@H](O)C[C@H]1CC[C@@H]1[C@@H]2CC[C@]2(C)[C@@H](C(=O)CO)CC[C@@H]12 [3α,21-dihydroxy-50-pregnan-20-one]	180 nM
CC(C)(O)[C@H]1CC[C@H]2[C@@H]3CC[C@H]4C[C@](C)(O)CC[C@]4(C)[C@H]3CC[C@]12C [3α, 20-dihydroxy-3β, 20-dimethyl-5α-pregnane]	264 nM
C[C@H](O)[C@H]1CC[C@H]2[C@@H]3CC[C@@H]4C[C@H](O)CC[C@]4(C)[C@H]3CC[C@]12C [3α, 20a-dihydroxy-5β-pregnane]	292 nM

Same assay, conditions: inhibition of [35S]TBPS (2 nM) binding, rat cerebral cortex P2 membranes, 5 µM GABA, 90 minute incubation at 22°C; sodium salt

Molecule	IC50 [nM]
C[C@@]1(O)CC[C@@]2(C)[C@@H](CC[C@@H]3[C@@H]2CC[C@]2(C)[C@@H](C(=O)COC(=O)CCC(=O)O)CC[C@@H]32)C1 [3α,21-dihydroxy-3β-methyl-5α-pregnan-20-one 21-Hemisuccinate, sodium salt]	211
C[C@]12CC[C@@H](O)C[C@@H]1CC[C@@H]1[C@@H]2CC[C@]2(C)[C@@H](C(=O)COC(=O)CCC(=O)O)CC[C@@H]12 [3α,21-dihydroxy-5α-pregnan-20-one 21-hemisuccinate, sodium salt]	251
